Laboratory results published in PubChem BioAssay AID248 (DTP/NCI, 2004).
Values joined by “and” are separate entries in the source; they are usually repeats but may differ in a detail not shown here. Equal entries are not always repeated. Inconclusive results and toxic doses are left out. Rule as the data show it: active = T/C of 150% or more; inactive = T/C below 125%.

System: L1210 leukemia ip in BDF1 mice, survival T/C
Experiment: NCI In Vivo Anticancer Drug Screen. Data for tumor model L1210 Leukemia (intraperitoneal) in B6D2F1 (BDF1) mice
Details: endpoint: mean survival time, higher = longer survival
Method in brief: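 Transplantable tumor model; survival measured in treated vs vehicle control mice. Value = treated/control.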

[1] = dose: 100.0 mg/kg/injection, schedule: Q01DX001 (ip), vehicle: carboxymethylcellulose (CMC)
[2] = dose: 200.0 mg/kg/injection, schedule: Q01DX001 (ip), vehicle: carboxymethylcellulose (CMC)
[3] = dose: 400.0 mg/kg/injection, schedule: Q01DX001 (ip), vehicle: carboxymethylcellulose (CMC)
[4] = dose: 100.0 mg/kg/injection, schedule: Q01DX001 (ip), vehicle: saline
[5] = dose: 100.0 mg/kg/injection, schedule: Q01DX009 (ip), vehicle: Klucel (hydroxypropylcellulose) (HPC)
[6] = dose: 200.0 mg/kg/injection, schedule: Q01DX001 (ip), vehicle: saline
[7] = dose: 200.0 mg/kg/injection, schedule: Q01DX009 (ip), vehicle: Klucel (hydroxypropylcellulose) (HPC)
[8] = dose: 400.0 mg/kg/injection, schedule: Q01DX001 (ip), vehicle: saline
[9] = dose: 100.0 mg/kg/injection, schedule: Q04DX003 (ip), vehicle: Klucel (hydroxypropylcellulose) (HPC)
[10] = dose: 200.0 mg/kg/injection, schedule: Q04DX003 (ip), vehicle: Klucel (hydroxypropylcellulose) (HPC)
[11] = dose: 400.0 mg/kg/injection, schedule: Q01DX009 (ip), vehicle: Klucel (hydroxypropylcellulose) (HPC)
[12] = dose: 400.0 mg/kg/injection, schedule: Q04DX003 (ip), vehicle: Klucel (hydroxypropylcellulose) (HPC)
[13] = dose: 100.0 mg/kg/injection, schedule: Q01DX009 (ip), vehicle: saline with Tween-80
[14] = dose: 200.0 mg/kg/injection, schedule: Q01DX009 (ip), vehicle: saline with Tween-80
[15] = dose: 400.0 mg/kg/injection, schedule: Q01DX009 (ip), vehicle: saline with Tween-80

Measured: T/C

N=C(N)N/N=C(/c1ccccc1)c1ccc(Oc2ccc(/C(=N/NC(=N)N)c3ccccc3)cc2)cc1
inactive: dose: 60.0 mg/kg/injection, schedule: Q01DX Z (oral), vehicle: methylcellulose (MC) 95 % of control | dose: 240.0 mg/kg/injection, schedule: Q01DX Z (ip), vehicle: methylcellulose (MC) 101 % of control | dose: 240.0 mg/kg/injection, schedule: Q01DX Z (oral), vehicle: methylcellulose (MC) 97 % of control | dose: 360.0 mg/kg/injection, schedule: Q01DX Z (ip), vehicle: methylcellulose (MC) 102 % of control | dose: 480.0 mg/kg/injection, schedule: Q01DX Z (ip), vehicle: methylcellulose (MC) 101 % of control | dose: 480.0 mg/kg/injection, schedule: Q01DX Z (oral), vehicle: methylcellulose (MC) 111 % of control

C[N+](C)(C)C1CC2CC1C2 (stereo not drawn)
inactive: dose: 75.0 mg/kg/injection, schedule: Q01DX001 (ip), vehicle: saline 97 % of control

O=c1c(O)c(-c2ccccc2)oc2ccccc12
inactive: [1] 90 % of control | [2] 97 % of control | [3] 97 % of control

CC(C(=O)c1ccc(Br)cc1)C(O)(C(F)(F)F)C(F)(F)F (stereo not drawn)
inactive: dose: 100.0 mg/kg/injection, schedule: Q01DX007 (ip), vehicle: saline with Tween-80 102 % of control | dose: 200.0 mg/kg/injection, schedule: Q01DX007 (ip), vehicle: saline with Tween-80 109 % of control | dose: 400.0 mg/kg/injection, schedule: Q01DX007 (ip), vehicle: saline with Tween-80 101 % of control

COCC/C(COC)=N\N=C(/CCOC)COC
inactive: dose: 50.0 mg/kg/injection, schedule: Q01DX001 (ip), vehicle: saline 97 % of control | [4] 103 % of control | [5] 103 % of control | [6] 106 % of control | [7] 111 % of control | [8] 109 % of control

Cc1cc(C)c(-c2c(C)cc(C)c([N+](=O)[O-])c2C)c(C)c1N
inactive: dose: 75.0 mg/kg/injection, schedule: Q01DX009 (ip), vehicle: Klucel (hydroxypropylcellulose) (HPC) 100 % of control | dose: 75.0 mg/kg/injection, schedule: Q04DX003 (ip), vehicle: Klucel (hydroxypropylcellulose) (HPC) 98 % of control | dose: 150.0 mg/kg/injection, schedule: Q01DX009 (ip), vehicle: Klucel (hydroxypropylcellulose) (HPC) 105 % of control | dose: 150.0 mg/kg/injection, schedule: Q04DX003 (ip), vehicle: Klucel (hydroxypropylcellulose) (HPC) 101 % of control | dose: 300.0 mg/kg/injection, schedule: Q01DX009 (ip), vehicle: Klucel (hydroxypropylcellulose) (HPC) 100 % of control | dose: 300.0 mg/kg/injection, schedule: Q04DX003 (ip), vehicle: Klucel (hydroxypropylcellulose) (HPC) 93 % of control

CCOC(=O)C(Cc1ccc(Cl)cc1)(Cc1ccc(Cl)cc1)C(=O)OCC
inactive: [5] 100 % of control | [9] 92 % of control | [7] 98 % of control | [10] 92 % of control | [11] 102 % of control | [12] 94 % of control

Cc1ccnc(NC(C#N)c2ccccc2)c1 (stereo not drawn)
inactive: dose: 12.5 mg/kg/injection, schedule: Q01DX009 (ip), vehicle: saline with Tween-80 93 % of control | dose: 25.0 mg/kg/injection, schedule: Q01DX009 (ip), vehicle: saline with Tween-80 97 % of control | dose: 50.0 mg/kg/injection, schedule: Q01DX009 (ip), vehicle: saline with Tween-80 93 % of control and 100 % of control

COC(=O)Cc1cc(C)n(C)c(=O)c1CN1C(=O)c2ccccc2C1=O
inactive: dose: 100.0 mg/kg/injection, schedule: Q04DX003 (ip), vehicle: other 102 % of control | dose: 200.0 mg/kg/injection, schedule: Q04DX003 (ip), vehicle: other 107 % of control | dose: 400.0 mg/kg/injection, schedule: Q04DX003 (ip), vehicle: other 98 % of control

S=C(Nc1ccccc1)Nc1ccc(NC(=S)Nc2ccccc2)cc1
inactive: dose: 100.0 mg/kg/injection, schedule: Q01DX001 (ip), vehicle: saline with Tween-80 96 % of control | dose: 200.0 mg/kg/injection, schedule: Q01DX001 (ip), vehicle: saline with Tween-80 92 % of control

C/C(CC(C)C)=N/O
inactive: [4] 95 % of control | [6] 97 % of control | [8] 92 % of control

CC(C)N1C(Nc2ccccn2)C(C)(C)C(C)(C)C1Nc1ccccn1 (stereo not drawn)
inactive: dose: 100.0 mg/kg/injection, schedule: Q04DX002 (ip), vehicle: gum acacia 110 % of control | dose: 200.0 mg/kg/injection, schedule: Q04DX002 (ip), vehicle: gum acacia 120 % of control | dose: 400.0 mg/kg/injection, schedule: Q04DX002 (ip), vehicle: gum acacia 97 % of control

O=C(/C(=C\c1ccccc1)Oc1ccc(S[N+](=O)[O-])cc1)c1ccccc1
inactive: [1] 95 % of control | [2] 92 % of control | [3] 95 % of control

CCCCCCCCCCCCCCCC(=O)Nc1ccc(C(=O)C[n+]2ccc3c(NC(=O)CCC(=O)OC)cccc3c2)cc1
inactive: dose: 75.0 mg/kg/injection, schedule: Q01DX001 (ip), vehicle: other 86 % of control | dose: 150.0 mg/kg/injection, schedule: Q01DX001 (ip), vehicle: other 95 % of control

CC(=O)Nc1ccccc1Cl
inactive: [5] 100 % of control | [7] 105 % of control | [11] 108 % of control

CCOC(=O)C(=O)Nc1onc(C)c1NC(=O)C(=O)OCC
inactive: [13] 89 % of control | [14] 89 % of control | [15] 92 % of control

CN1OCC2CCCC(c3ccccc3)C21 (stereo not drawn)
inactive: [9] 97 % of control | [10] 100 % of control

COc1cccc(CN)c1
inactive: dose: 100.0 mg/kg/injection, schedule: Q04DX003 (ip), vehicle: saline with Tween-80 99 % of control | dose: 200.0 mg/kg/injection, schedule: Q04DX003 (ip), vehicle: saline with Tween-80 100 % of control | dose: 400.0 mg/kg/injection, schedule: Q04DX003 (ip), vehicle: saline with Tween-80 94 % of control

CC(CN1c2ccccc2Sc2ccc(Cl)cc21)N(C)CCCl (stereo not drawn)
inactive: dose: 75.0 mg/kg/injection, schedule: Q01DX001 (ip), vehicle: carboxymethylcellulose (CMC) 106 % of control and 114 % of control

CCCC(CN(CCN(C)C)Cc1ccccc1)c1ccc(OC)cc1 (stereo not drawn)
inactive: [4] 101 % of control

C/C=C/C=C/COC(=O)CCCCCCC
inactive: dose: 25.0 mg/kg/injection, schedule: Q04DX002 (ip), vehicle: saline 107 % of control | dose: 50.0 mg/kg/injection, schedule: Q04DX002 (ip), vehicle: saline 103 % of control | dose: 100.0 mg/kg/injection, schedule: Q04DX002 (ip), vehicle: saline 103 % of control | dose: 200.0 mg/kg/injection, schedule: Q04DX002 (ip), vehicle: saline 110 % of control and 112 % of control | dose: 400.0 mg/kg/injection, schedule: Q04DX002 (ip), vehicle: saline 100 % of control

OC1CCSC1 (stereo not drawn)
inactive: dose: 50.0 mg/kg/injection, schedule: Q01DX009 (ip), vehicle: saline 95 % of control | dose: 100.0 mg/kg/injection, schedule: Q01DX009 (ip), vehicle: saline 95 % of control | dose: 200.0 mg/kg/injection, schedule: Q01DX009 (ip), vehicle: saline 98 % of control

COc1ccccc1CC=O
inactive: [4] 102 % of control | [6] 103 % of control | [8] 97 % of control

CC(O)(C#CC(C)(O)c1ccccc1)c1ccccc1 (stereo not drawn)
inactive: [13] 97 % of control | [14] 98 % of control | [15] 113 % of control

CCOc1cccc(Cc2cn(CCC#N)c(=O)[nH]c2=O)c1
inactive: [9] 108 % of control | [10] 89 % of control | [12] 89 % of control

CC(N)CC(C)(C)N (stereo not drawn)
inactive: dose: 50.0 mg/kg/injection, schedule: Q04DX003 (ip), vehicle: saline 90 % of control | dose: 100.0 mg/kg/injection, schedule: Q04DX003 (ip), vehicle: saline 91 % of control | dose: 200.0 mg/kg/injection, schedule: Q04DX003 (ip), vehicle: saline 90 % of control
